The series deals with hyperalgesic responses following chronic constriction injuries of the rat sciatic nerve. The series can be described thus: Chronic constriction injury (CCI)-induced mechanical hyperalgesia in rats (modified Randall-Selitto method). It is filed as in vivo. Conditions: for Contra-PWT30 min (paw withdrawal threshold, contralateral unlesioned paw) / Ipsi-PWT30 min (paw withdrawal threshold, CCI-lesioned ipsilateral paw) / PWT30 min: 30 min after treatment; for Contra-PWT30 min (paw withdrawal threshold, contralateral unlesioned paw) / Ipsi-PWT30 min (paw withdrawal threshold, CCI-lesioned ipsilateral paw): cut-off 240 g; for Ipsi-PWT30 min (paw withdrawal threshold, CCI-lesioned ipsilateral paw): 7 days after sciatic nerve ligation; for PWT30 min / PWT60 min: Table II, 175 μmol/kg sc each agent, alone or in combination; for PWT60 min: 60 min after treatment. On the procedure: The efficacy of nitrooxyderivatives of antioxidant compounds of formula (I) in the treatment of neuropathic pain was evaluated in the model of hyperalgesic responses following chronic constriction injuries of the rat sciatic nerve. The pharmacological activity of the compounds of formula (I) was compared to that of the known analgesic drugs. The parent not-derivatized antioxidant drug was used as reference. The efficacy of the equimolar combination of compounds of formula (I) and analgesic drugs selected between the group of gabapentin, tiagabine and pregabalin was also evaluated, on the same experimental model.
The method described by Bennet and Xie (1988) was generally followed. Rats were anesthetized with chloral hydrate (380 mg/kg ip, Sigma). The right common sciatic nerve was exposed at the level of the middle of the high by blunt dissection through the biceps femoris. Proximal to the sciatic's trifurcation, about 12 mm of nerve was freed of adhering tissue and four ligatures (3/0 silk suture) were tied loosely around it with about 1 mm spacings. Ligatures were tied such that the diameter of the nerve was only barely constricted. […] The incision was closed in layers. The experiments were then carried out 1 week after surgery. Mechanical hyperalgesia was determined with an analgesimeter (Ugo Basile, Italy), using the modified Randall-Selitto method. Briefly, a conical stylus with a hemispherical tip was places upon the middle of hind paw dorsum. The animal was gently restrained and calibrated pressure of gradually increasing intensity was applied until the rat withdrew the hindpaw. Threshold pressure (g) of both hindpaws was determined every 15 minutes, with two measurements before the treatments (pretest), and from 15 to 60 minutes after treatment. An arbitrary cut-off value of 240 g was adopted.

Regarding `COc1cc(/C=C/C(=O)OCCCCO[N+](=O)[O-])ccc1O` [Ferulic acid 4-(nitrooxy)butyl ester, Ferulic Acid 4-(nitrooxy)butyl ester], the PWT30 min is 76.3 ± 4.8 g and the PWT60 min is listed as 37.5 ± 5.9 g. For the same compound, for the setting “175 μmol/kg sc”, the “Contra-PWT30 min (paw withdrawal threshold, contralateral unlesioned paw)” value (shortened to “Contra-PWT30 min”) was 98.5 ± 4.8 g and the “Ipsi-PWT30 min (paw withdrawal threshold, CCI-lesioned ipsilateral paw)” value (“Ipsi-PWT30 min” below) is given as 76.3 ± 4.8 g. Where the note is “175 μmol/kg sc, observed in CCI experiment”, the sedative effect entry is listed as “did not induce any appreciable sedative effect”.

Consider `NCC1(CC(=O)O)CCCCC1` [Gabapentin], for which the PWT30 min was found to be 75.1 ± 9.8 g and the PWT60 min amounted to 37.6 ± 7.0 g. Under “175 μmol/kg sc”, the “Contra-PWT30 min” value came to 84.3 ± 3.9 g and the “Ipsi-PWT30 min” value is 75.1 ± 9.8 g.

Take `COc1cc(/C=C/C(=O)O)ccc1O` [Ferulic acid]: where the note is “175 μmol/kg sc”, the “Contra-PWT30 min” value was 71.4 ± 11.1 g and the “Ipsi-PWT30 min” value worked out at 37.9 ± 15.5 g.

Source of the values: US20100179192A1, “USE OF NITRIC OXIDE RELEASING COMPOUNDS IN THE TREATMENT OF CHRONIC PAIN” (NICOX S.A., priority 2007, published 2010).
